Assay results taken from patent publication US9295255B2, “Use of dithiine derivatives in crop protection and the protection of materials” (Bayer Intellectual Property GmbH, priority 2010, dated 2016).

How the values were obtained:
Botrytis cinerea = assay: Botrytis test (bean)/protective; type: in vivo; settings: young bean plants sprayed, 500 ppm, protective; size of infestation spots 2 days following inoculation; 0% = control, 100% = no infestation
Text: An appropriate preparation of active compound is produced by mixing 1 part by weight of active compound with the stated amounts of solvent and emulsifier and diluting the concentrate with water to the desired concentration. To test for protective activity, young plants are sprayed with the preparation of active compound at the stated application rate. After the spray coating has dried on, 2 small pieces of agar on which Botrytis cinerea is growing are placed on each leaf. The inoculated plants are placed in a darkened chamber at approximately 20° C. and 100% relative humidity. After 2 clays following inoculation, the size of the infestation spots on the leaves is evaluated. Here, 0% denotes an efficacy which corresponds to that of the control, whereas an efficacy of 100% means that no infestation is observed.

Alternaria solani = assay: Alternaria test (tomato)/protective; type: in vivo; settings: young tomato plants sprayed, 1500 ppm, protective; evaluation 7 days following inoculation; 0% = control, 100% = no infestation
Venturia inaequalis = assay: Venturia test (apple)/protective; type: in vivo; settings: young apple plants sprayed, 250 ppm, protective; evaluation 10 days following inoculation; 0% = control, 100% = no infestation
Text: An appropriate preparation of active compound is produced by mixing 1 part by weight of active compound with the stated amounts of solvent and emulsifier and diluting the concentrate with water to the desired concentration. To test for protective activity, young plants are sprayed with the preparation of active compound at the stated application rate. After the spray coating has dried on, the plants are inoculated with an aqueous conidia suspension of the causative organism of apple scab, Venturia inaequalis, and then spend 1 day in an incubation cabin at approximately 20° C. and 100% relative humidity. Subsequently the plants are placed in a greenhouse at approximately 21° C. and approximately 90% humidity. After 10 clays following inoculation, evaluation takes place. Here, 0% denotes an efficacy which corresponds to that of the control, whereas an efficacy of 100% means that no infestation is observed.

Plasmopara viticola = assay: Plasmopara test (grapevine)/protective; type: in vivo; settings: young grapevine plants sprayed, 250 ppm, protective; evaluation 6 days following inoculation; 0% = control, 100% = no infestation
Text: An appropriate preparation of active compound is produced by mixing 1 part by weight of active compound with the stated amounts of solvent and emulsifier and diluting the concentrate with water to the desired concentration. To test for protective activity, young plants are sprayed with the preparation of active compound at the stated application rate. After the spray coating has dried on, the plants are inoculated with an aqueous spore suspension of Plasmopara viticola and then spend 1 day in an incubation cabin at approximately 20° C. and 100% relative humidity. Subsequently the plants are placed for 4 days in a greenhouse at approximately 21° C. and approximately 90% humidity. The plants are then moistened and placed in an incubation cabin for 1 day. After 6 days following inoculation, evaluation takes place. Here, 0% denotes an efficacy which corresponds to that of the control, whereas an efficacy of 100% means that no infestation is observed.

[1] = log P determination by HPLC on reversed-phase column (EEC Directive 79/831 Annex V.A8); type: physicochemical; settings: reversed-phase C18 HPLC column, reversed-phase C 18, 43° C., acidic range pH 2.7, 0.1% aqueous formic acid/acetonitrile
Protocol: The log P values reported in the preparation examples and tables above are determined in accordance with EEC Directive 79/831 Annex V.A8 by means of HPLC (High Performance Liquid Chromatography) on a reversed-phase column (C 18). Temperature: 43° C.
The determination with the LC-MS in the acidic range takes place at a pH of 2.7 using 0.1% aqueous formic acid and acetonitrile (containing 0.1% formic acid) as eluents: linear gradient from 10% acetonitrile to 95% acetonitrile.
Calibration takes place using unbranched alkan-2-ones (having 3 to 16 carbon atoms) of which the log P values are known (log P values determined on the basis of the retention times, by linear interpolation between two successive alkanones).

Phytophthora infestans = type: in vivo; settings: young tomato plants sprayed, 1500 ppm, protective; evaluation 7 days following inoculation; 0% = control, 100% = no infestation

Molecule COc1c(O)c2c(c(O)c1Cl)SC(C#N)=C(C#N)S2 [Compound 48, 6-chloro-5,8-dihydroxy-7-methoxy-1,4-benzodithiine-2,3-dicarbonitrile] has an Efficacy in % (Botrytis cinerea) of 97%, an Efficacy in % (Alternaria solani) of 100% and an Efficacy in % (Venturia inaequalis) of 100%. For the same molecule, the Efficacy in % (Plasmopara viticola) was 90%, the chromatographic logP [1] was 2.19 and the Efficacy in % (Phytophthora infestans) was 94%.

Cc1c(C)c(O)c2c(c1O)SC(C#N)=C(C#N)S2 [Compound 47, 5,8-dihydroxy-6,7-dimethyl-1,4-benzodithiine-2,3-dicarbonitrile] gave an Efficacy in % (Botrytis cinerea) of 100%, an Efficacy in % (Alternaria solani) of 100% and an Efficacy in % (Venturia inaequalis) of 100%. The Efficacy in % (Plasmopara viticola) was 92%, the chromatographic logP [1] was 2.26 and the Efficacy in % (Phytophthora infestans) was 89%.

CC(C)(C)c1cc(=O)c2sc(C#N)c(C#N)sc=2c1=O [Compound 45, 6-tert-butyl-5,8-dioxo-5,8-dihydro-1,4-benzodithiine-2,3-dicarbonitrile] showed an Efficacy in % (Phytophthora infestans) of 78%.

Cc1c(C)c(=O)c2sc(C#N)c(C#N)sc=2c1=O [Compound 43, 6,7-dimethyl-5,8-dioxo-5,8-dihydro-1,4-benzodithiine-2,3-dicarbonitrile] showed an Efficacy in % (Alternaria solani) of 100%.

Work on COc1c(Cl)c(=O)c2sc(C#N)c(C#N)sc=2c1=O [Compound 44, 6-chloro-7-methoxy-5,8-dioxo-5,8-dihydro-1,4-benzodithiine-2,3-dicarbonitrile] yielded an Efficacy in % (Alternaria solani) of 100%.

Molecule CC(C)(C)c1cc(O)c2c(c1O)SC(C#N)=C(C#N)S2 [Compound 49, 6-tert-butyl-5,8-dihydroxy-1,4-benzodithiine-2,3-dicarbonitrile] has an Efficacy in % (Botrytis cinerea) of 96%, an Efficacy in % (Alternaria solani) of 100% and an Efficacy in % (Venturia inaequalis) of 100%. It also gave an Efficacy in % (Plasmopara viticola) of 92%, a chromatographic logP [1] of 2.95 and an Efficacy in % (Phytophthora infestans) of 94%.
